Where “and” joins values, the source holds several entries; their conditions need not be identical. Identical values can stand only once.
Tests used:
[1] = target: T1, S. aureus topoisomerase IV (Staphylococcus aureus, UniProt P0C1S7); experiment: S. aureus topoisomerase IV gel-based assay; assay type: biochemical; conditions: quadruplicates
T1 construct: purchased Inspiralis Ltd., Norwich, UK

Acinetobacter baumannii = experiment: MIC, broth microdilution (CLSI); assay type: cell-based
Procedure: (§1) MICs were determined using a standard serial broth microdilution technique according to the CLSI guidelines. Briefly, bacterial strains were inoculated onto MHBII agar plates and were grown overnight at 37 °C. Next, 3 individual colonies from each strain were inoculated into 1 mL MHBII medium and propagated at 37 °C, 250 rpm overnight. In the cases of Enterococcus and Streptococcus sp., cells were plated to BHI agar plates, and BHI broth was used to determine MICs. […] Following dilutions, each well was seeded with 5×10^4 bacterial cells. All measurements were performed in 3 parallel replicates and to avoid possible edge effects in microwell plates, side rows (A and H) were filled with sterile medium. Following inoculations, plates were covered with lids and wrapped in polyethylene plastic bags to minimize evaporation but allow for O2 transfer. Plates were incubated at 37 °C under continuous shaking at 150 rpm for 18 hours. After incubation, OD600 of each well was measured using a BioTek Synergy 2 microplate reader.

Clostridium difficile = experiment: MIC, broth microdilution (CLSI); assay type: cell-based
Procedure: as §1

Enterococcus faecalis = experiment: MIC, broth microdilution (CLSI); assay type: cell-based
Procedure: as §1

Enterococcus faecium = experiment: MIC, broth microdilution (CLSI); assay type: cell-based
Procedure: as §1

Escherichia coli = experiment: MIC, broth microdilution (CLSI); assay type: cell-based; conditions: Escherichia coli ATCC 25922
Procedure: as §1

Haemophilus influenzae = experiment: MIC, broth microdilution (CLSI); assay type: cell-based
Procedure: as §1

Helicobacter pylori = experiment: MIC, broth microdilution (CLSI); assay type: cell-based; conditions: Helicobacter pylori ATCC 43504
Procedure: as §1

Listeria monocytogenes = experiment: MIC, broth microdilution (CLSI); assay type: cell-based; conditions: Listeria monocytogenes ATCC 19111
Procedure: as §1

Neisseria gonorrhoeae = experiment: MIC, broth microdilution (CLSI); assay type: cell-based
Procedure: as §1

Pseudomonas aeruginosa = experiment: MIC, broth microdilution (CLSI); assay type: cell-based
Procedure: as §1

Shigella flexneri = experiment: MIC, broth microdilution (CLSI); assay type: cell-based
Procedure: as §1

Staphylococcus aureus = experiment: MIC, broth microdilution (CLSI); assay type: cell-based
Procedure: as §1

Streptococcus pneumoniae = experiment: MIC, broth microdilution (CLSI); assay type: cell-based
Procedure: as §1

Streptococcus pyogenes = experiment: MIC, broth microdilution (CLSI); assay type: cell-based
Procedure: as §1

[2] = system: S. aureus ATCC 700699 VISA; experiment: Time-dependent killing; assay type: cell-based; conditions: for Time-kill bacterial count: 10xMIC; for Colony numbers: time-kill raw counts, Samples 1-3
Procedure: Time-dependent killing experiments were performed as previously. S. aureus ATCC 700699 VISA cells were inoculated to MHBII agar plates and grown overnight at 37 °C. Next, 3 independent stationer-phase starter cultures were grown at 37 °C, 250 rpm overnight, in 3 × 1 mL MHBII broth. Next, 100-fold diluted cultures were prepared from each in 20 mL fresh MHBII medium and grown at 37 °C, 250 rpm until early exponential phase (OD600 = 0.3–0.4; i.e., 5 × 10^5 cells/mL). […] Cells were treated with antibiotics in Erlenmeyer flasks at 37 °C, 150 rpm for 48 hours. […] Next, 50 μL from each dilution were plated on MHBII agar plates, and plates were incubated overnight at 37 °C to calculate CFU per mL.

[3] = Pharmacokinetics measurement in skin tissue; assay type: in vivo, mice
Procedure: Pharmacokinetics measurement of ULD1 and ULD2 in skin tissue was conducted parallelly with the mice dermal infection study. In all cases, skin tissue samples were collected at the termination and homogenized following the same method as homogenate preparation for bacterial enumeration. Before measurement, protein precipitation was performed by treating the samples with acetonitrile. Analytics were the performed by liquid chromatography coupled mass spectrometry (LC/MS/MS) on an AB SCIEX QTRAP mass spectrometer in electrospray, positive ions ionization mode, and with Multiple Reaction Monitoring scan mode. Samples were analyzed on a Phenomenex Luna 5u Phenyl-Hexyl 50 × 2.0 mm HPLC column in a mobile phase of A: acetonitrile/formic acid = 100/0.2 (v/v), and mobile phase of B: water / formic acid = 100/0.2 (v/v). The column’s temperature was set to 30 °C, the injection volumes were 10 μL, and measurement time was 5 minutes in all cases. Oxybutynin (0.01 ng/μL in acetonitrile) was used as an internal standard for the measurement. Finally, the concentration of the drug in tissue samples was calculated from the peak area ratio.

in vitro = conditions: human
Procedure: Cytotoxicity of compounds on HepG2 and MCF-7 mammalian cell lines was determined by using a standard LDH assay. Briefly, HepG2 and MCF-7 cells were cultured in Eagle’s MEM medium (from Gibco) supplemented with 2 mM L-glutamine (Sigma), 100 U/mL penicillin (Sigma), and 100 μg/mL streptomycin (Sigma), and 10% FBS (Gibco) at 37 °C and under 5% CO2. Next, LDH assays were performed according to manufacturer instructions (Thermo Fisher Scientific, Massachusetts, USA). By using a CyQUANT LDH Cytotoxicity Assay Kit. Firstly, the cells were seeded in 96-well microtiter plates at 10^5 cells/mL (100 μL/well) and allowed to attach overnight. […] Lysis buffer (10 μL, Thermo Fisher Scientific) was then added to the maximal LDH activity control wells and incubated additional 45 minutes. The cell culture supernatant (50 μL) was then transferred to a new 96-well plate and mixed with 50 μL of the reaction mixture. After 30 minutes on room temperature, reactions were stopped with 50 μL of the Stop solution. Absorbance (490 nm and 680 nm) was measured with the automatic microplate reader Synergy 4 Hybrid Microplate Reader (BioTek, VT, USA). All experiments were performed in triplicates and repeated 3 times. Statistical significance (P < 0.05) was calculated with 2-tailed Welch’s t-test between treated groups and DMSO. The percentage of cytotoxicity was determined according to the following equation: %Cytotoxicity=(CompoundtreatedLDHactivity-SpontaneousLDHactivity/MaximumLDHactivity-SpontaneousLDHactivity)*100

T1 sequence (P0C1S7 whole entry): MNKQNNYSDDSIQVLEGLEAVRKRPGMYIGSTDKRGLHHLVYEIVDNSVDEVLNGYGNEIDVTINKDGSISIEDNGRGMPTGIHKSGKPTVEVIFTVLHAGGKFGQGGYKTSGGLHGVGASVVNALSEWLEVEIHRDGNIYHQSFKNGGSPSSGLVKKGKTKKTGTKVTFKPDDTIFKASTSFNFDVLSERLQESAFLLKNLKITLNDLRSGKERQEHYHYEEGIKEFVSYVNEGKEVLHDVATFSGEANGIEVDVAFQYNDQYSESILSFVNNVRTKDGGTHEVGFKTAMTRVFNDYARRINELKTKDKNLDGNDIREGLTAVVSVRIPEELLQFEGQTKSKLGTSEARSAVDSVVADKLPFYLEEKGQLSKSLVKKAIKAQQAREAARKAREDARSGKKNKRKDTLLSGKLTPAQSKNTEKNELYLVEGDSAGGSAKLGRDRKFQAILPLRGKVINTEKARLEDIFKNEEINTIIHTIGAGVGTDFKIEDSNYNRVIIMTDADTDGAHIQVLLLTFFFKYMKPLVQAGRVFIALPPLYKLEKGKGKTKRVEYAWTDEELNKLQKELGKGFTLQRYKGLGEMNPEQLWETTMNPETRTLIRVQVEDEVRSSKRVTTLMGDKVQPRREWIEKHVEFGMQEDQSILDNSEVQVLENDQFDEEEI
T1 sequence (P0C1U9 whole entry, further chain): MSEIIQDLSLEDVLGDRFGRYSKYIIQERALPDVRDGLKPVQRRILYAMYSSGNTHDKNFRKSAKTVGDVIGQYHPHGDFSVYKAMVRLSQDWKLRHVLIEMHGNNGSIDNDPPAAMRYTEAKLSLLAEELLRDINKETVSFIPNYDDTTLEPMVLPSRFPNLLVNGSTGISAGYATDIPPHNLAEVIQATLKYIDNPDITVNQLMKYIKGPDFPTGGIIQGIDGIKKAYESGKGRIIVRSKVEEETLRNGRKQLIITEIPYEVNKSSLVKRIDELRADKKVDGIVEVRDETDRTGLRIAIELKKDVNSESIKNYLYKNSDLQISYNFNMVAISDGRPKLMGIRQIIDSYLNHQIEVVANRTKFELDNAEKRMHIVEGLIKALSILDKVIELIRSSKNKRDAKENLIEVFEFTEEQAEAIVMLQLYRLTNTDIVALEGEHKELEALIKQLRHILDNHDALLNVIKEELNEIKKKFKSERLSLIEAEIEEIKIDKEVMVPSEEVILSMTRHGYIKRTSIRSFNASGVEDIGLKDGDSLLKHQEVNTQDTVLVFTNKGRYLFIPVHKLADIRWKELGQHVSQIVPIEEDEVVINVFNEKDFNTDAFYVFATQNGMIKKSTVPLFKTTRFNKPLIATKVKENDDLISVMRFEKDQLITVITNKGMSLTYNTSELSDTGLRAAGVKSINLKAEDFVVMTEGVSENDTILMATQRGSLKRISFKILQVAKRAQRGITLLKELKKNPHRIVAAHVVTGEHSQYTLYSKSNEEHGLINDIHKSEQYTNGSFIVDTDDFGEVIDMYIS

Cc1[nH]c(C(=O)Nc2nc3ccc(C(=O)O)cc3s2)c(Cl)c1Cl [ULD1]
IC50 [1]: 9.3 ± 2.2 nM
MIC (Acinetobacter baumannii; ATCC19606, Acinetobacter baumannii ATCC 19606): 2 µg/mL
MIC (Acinetobacter baumannii; Acinetobacter baumannii ATCC 17978): 4 µg/mL
MIC (Acinetobacter baumannii; Acinetobacter baumannii ATCC 19606): 2 µg/mL
MIC (Clostridium difficile; Clostridioides difficile, BAA1875): ≤ 0.0312 µg/mL
MIC (Clostridium difficile; Clostridium difficile BAA-1875): < 0.0312 µg/mL
MIC (Enterococcus faecalis; Enterococcus faecalis ATCC 29212): 0.125 µg/mL
MIC (Enterococcus faecalis; Enterococcus faecalis ATCC 51575, VRE (VanB+)): 0.0625 µg/mL
MIC (Enterococcus faecium; Enterococcus faecium ATCC 19434): 2 µg/mL
MIC (Enterococcus faecium; Enterococcus faecium ATCC 700221, VRE (VanA+)): 0.0625 µg/mL
MIC (Enterococcus faecium; Enterococcus faecium BAA-2320, VRE (VanA+)): 0.25 µg/mL
MIC (Enterococcus faecium; Enterococcus faecium CCUG 56858, VRE (VanB+)): 2 µg/mL
MIC (Escherichia coli): 4 µg/mL
MIC (Haemophilus influenzae; ATCC49247, Haemophilus influenzae ATCC 49247): ≤ 0.0312 µg/mL
MIC (Haemophilus influenzae; Haemophilus influenzae ATCC 35056): 0.125 µg/mL
MIC (Haemophilus influenzae; Haemophilus influenzae ATCC 49247): < 0.0312 µg/mL
MIC (Helicobacter pylori): 4 µg/mL
MIC (Listeria monocytogenes; ATCC19111): 0.125 µg/mL
MIC (Listeria monocytogenes): 0.125 µg/mL
MIC (Neisseria gonorrhoeae; CCUG57598, Neisseria gonorrhoeae CCUG 57598): ≤ 0.0312 µg/mL
MIC (Neisseria gonorrhoeae; Neisseria gonorrhoeae ATCC 700825): < 0.0312 µg/mL
MIC (Neisseria gonorrhoeae; Neisseria gonorrhoeae CCUG 57598): < 0.0312 µg/mL
MIC (Pseudomonas aeruginosa; ATCC27853, Pseudomonas aeruginosa ATCC 27853): 8 µg/mL
MIC (Pseudomonas aeruginosa; Pseudomonas aeruginosa ATCC 27853): 8 µg/mL
MIC (Pseudomonas aeruginosa; Pseudomonas aeruginosa B3-1811, Ciprofloxacin-R, Cephalosporin-R): > 64 µg/mL
MIC (Shigella flexneri; Shigella flexneri 668): 16 µg/mL
MIC (Shigella flexneri; Shigella flexneri HNCMB 20018): 8 µg/mL
MIC (Staphylococcus aureus; Staphylococcus aureus (strain not given), MRSA (SCCmec type IV), Oxacillin-R, VSSA, Cephalosporin-R, Erythromycin-R): 1 µg/mL
MIC (Staphylococcus aureus; Staphylococcus aureus ATCC 29213): 1 µg/mL
MIC (Staphylococcus aureus; Staphylococcus aureus ATCC 33594, MSSA, VSSA): 0.5 µg/mL
MIC (Staphylococcus aureus; Staphylococcus aureus ATCC 43300, MRSA): 0.125 µg/mL
MIC (Staphylococcus aureus; Staphylococcus aureus ATCC 700699 (Mu50, NRS1), MRSA, VISA): 0.0625 µg/mL
MIC (Staphylococcus aureus; Staphylococcus aureus CDC AR-BANK 0218, MRSA, VISA): 1 µg/mL
MIC (Staphylococcus aureus; Staphylococcus aureus ECL 2963646, MRSA, VRSA): 0.125 µg/mL
MIC (Staphylococcus aureus; Staphylococcus aureus NRS271, MRSA, Linezolid-R): 1 µg/mL
MIC (Staphylococcus aureus; Staphylococcus aureus USA300, ATCC BAA-1717, MRSA): 0.5 µg/mL
MIC (Staphylococcus aureus; Staphylococcus aureus USA400, BAA-1707, NRS123, MRSA): 0.5 µg/mL
MIC (Staphylococcus aureus; Staphylococcus aureus, ATCC 700699 / MRSA / NRS 1 / VISA, S. aureus ATCC 700699 (Mu50, NRS1), MRSA, VISA): 0.0625 µg/mL
MIC (Staphylococcus aureus; Staphylococcus aureus, S. aureus ECL 2963646, MRSA, VRSA): 0.125 µg/mL
MIC (Streptococcus pneumoniae; Streptococcus pneumoniae ATCC 49619): 0.25 µg/mL
MIC (Streptococcus pneumoniae; Streptococcus pneumoniae ATCC 51916): 0.5 µg/mL
MIC (Streptococcus pneumoniae; Streptococcus pneumoniae ATCC 700673): 0.5 µg/mL
MIC (Streptococcus pyogenes; Streptococcus pyogenes ATCC 14289): 0.25 µg/mL
MIC (Streptococcus pyogenes; Streptococcus pyogenes ATCC 19615): 0.125 µg/mL
Time-kill bacterial count ([2]; time 0 hour): 2.80E+05
Time-kill bacterial count ([2]; time 3 hour): 9.80E+04
Time-kill bacterial count ([2]; time 6 hour): 6.30E+04
Time-kill bacterial count ([2]; time 12 hour): 4.90E+03
Time-kill bacterial count ([2]; time 18 hour): 1.70E+03
Time-kill bacterial count ([2]; time 24 hour): 8.50E+02
Time-kill bacterial count ([2]; time 48 hour): 1.60E+02
cell killing (bactericidal) activity ([2]; 10× MIC, S. aureus ATCC 700699 (VISA), in words): exceed that of fusidic acid
Colony numbers ([2]; time 0 h, Dilution 100): 145 and 132 and 137
Colony numbers ([2]; time 3 h, Dilution 100): 54 and 53 and 40
Colony numbers ([2]; time 6 h, Dilution 100): 38 and 20 and 36
Colony numbers ([2]; time 12 h, Dilution 10): 20 and 23 and 31
Colony numbers ([2]; time 18 h, Dilution 1): 83 and 63 and 113
Colony numbers ([2]; time 24 h, Dilution 0.5): 65 and 80 and 110
Drug concentration in mouse skin tissue (individual mice) ([3]; 73 h, 3 days twice-a-day topical 20 μL ointment containing 2% drug): 8853 ng/mL and 14630 ng/mL and 6624 ng/mL
Drug concentration in mouse skin tissue, Mean ([3]; 73 h, 3 days twice-a-day topical 20 μL ointment containing 2% drug, n = 3): 10036 ng/mL
skin concentration as multiple of the MIC in wild-type S. aureus VISA ([3]; topical treatment, mouse skin): up to 300 times the MIC
IC50 (in vitro): > 100000 nM

— paper PMC7561186, “Rational design of balanced dual-targeting antibiotics with limited resistance” (PLoS Biology, 2020)
